Measured values taken from patent US12616692B2, “Method of achieving HIV viral remission using long-acting antiretroviral agents” (ViiV Healthcare Company, priority 2020, dated 2026).

Columns and labels:
[1] = 50 mg/kg CAB LA, 200 mg/kg RPV intramuscularly once a month; cited from earlier work
[2] = rhesus monkey, in vivo
HIV = conditions: cited from earlier work

Row | SMILES | Plasma concentration relative to protein-adjusted concentration required for 90% viral inhibition [1] | Time after the last dose over which plasma concentration declined to undetectable levels (remained detected) [2] | Protein-adjusted concentration required for 90% viral inhibition (HIV) [µg/mL]
1 | C[C@H]1CO[C@@H]2Cn3cc(C(=O)NCc4ccc(F)cc4F)c(=O)c(O)c3C(=O)N12 [CAB, cabotegravir] | well above | 4-7 months | 0.166
2 | Cc1cc(/C=C/C#N)cc(C)c1Nc1ccnc(Nc2ccc(C#N)cc2)n1 [RPV, rilpivirine] | well above | 4-7 months | –
